Assay results published in patent US11473088B2, “Method of treating cancer and method of sensitizing cancer cells to the action of chemotherapeutic agents via growth hormone receptor antagonists or knock down” (Ohio University, priority 2016, dated 2022).

What was measured:
MALME-3M cells = test: RT-qPCR of RNA levels after hGH addition or GHR-KD; type: cell-based, human; details: 0, 5, 50 and 150 ng/mL hGH, 24 hr
Protocol: (§1) For hGH treatment, 16 hours after seeding (or 24 hours post-transfection), the cells were serum-starved for 2 hours in serum-free growth media, and hGH (phosphate buffered saline was used as control where applicable) was added at the noted concentrations (0-, 5-, 50-, and 150 ng/ml). Cells were subsequently incubated for 24 hours before evaluating RNA levels. Recombinant hGH was purchased from Antibodies Online (#ABIN2017921, Atlanta, Ga.).
(§2) Transfection was performed using siLentFect lipid reagent (Biorad #170-3360, Hercules, Calif.) following the manufacturer's protocol. […] Mock transfections were performed using universal scrambled negative control siRNA-duplex (Origene #SR30004). TYE-563-fluorescent labeled siRNA duplex (Origene #SR30002) was used as the transfection control. Cells were trypsinized, counted using a Countess Automated Cell Counter (Life Technologies, Carlsbad, Calif.), and seeded at 25,000-30,000 cells/cm^2, the cells being allowed to attach for 16-18 hours. The growth media was replaced with fresh antibiotic free complete growth medium just prior to transfection. […] Media was changed to complete growth medium plus antibiotics after 24 hours. RNA levels were analyzed 48 hours post-transfection, and protein levels were analyzed at 60 hours post-transfection.
(§3) RNA extraction was performed using the IBI-Trizol based total RNA purification kit (MidSci #IB47632, St. Louis, Mo.), and reverse transcription was performed using Maxima First Strand cDNA synthesis kit (Thermo Fisher Scientific #K1642, Waltham, Mass.) following the manufacturers' protocols. Real time-quantitative PCR and melt curve analysis were performed using Maxima SYBR-Green qPCR master mix (Thermo Fisher Scientific #K0241) and a T100 thermal cycler (Biorad #1861096, Hercules, Calif.). RNA and DNA concentrations were estimated using a Nanodrop2000 (Thermo Fisher Scientific, Waltham, Mass.) spectrophotometer. Primers were obtained from Sigma-Aldrich for the following human genes, with primer efficiency being experimentally confirmed: GAPDH, b-Actin, GHR, GHRHR, SOCS2, IGF1, IGF1R, IGF2, IGF2R, PRL, PRLR, insulin (Ins), IR, IGFBP2, IGFBP3, EGFR, HGF, cMET and ERBB3. Each sample represented a pool of two replicates per experiment. Experiments were performed at least three times. Each qPCR for individual genes and every treatment for every cell type was performed in triplicates.
(§4) And so—referring now to FIGS. 12A-12B, 17A-17C, 18A-18F, 19A-19F, and 20A-20F—RT-qPCR analysis of GH-IGF axis in human melanoma cells (FIGS. 12A-12B) and RT-qPCR analysis of GH-GHR and PRL-PRLR pairs in human melanoma cells (FIGS. 17A-17C) was performed. […] And, while not shown in FIGS. 12A and 12B, similar results for MALME-3M, MDA-MB-435 and SK-MEL-5 human melanoma cells are presented in FIGS. 13A-13L, 17A-17C, 18A-18F, 19A-19F, and 20A-20F. […] In all cases, exogenous hGH treatment was for 24 hr. RNA levels were normalized against expression of beta-actin and GAPDH as reference genes. […] Cells were grown in presence of 50 ng/mL exogenous GH and protein level changes were estimated 60 hr. post-transfection. [*, p<0.05, Students t test, n=3]. […] The percentage free area at the end time point was calculated using ImageJ software and reflected the decrease/inhibition in migration. […] [*, p<0.05, Students t-test, n=3]. In all cases, exogenous hGH treatment was for 24 hr. RNA levels were normalized against expression of β-actin and GAPDH as reference genes [*, p<0.05, Wilcoxon sign rank test, n=4]. […] In all cases, exogenous hGH treatment was for 24 hr. RNA levels were normalized against expression of β-actin and GAPDH as reference genes. [*, p<0.05, Wilcoxon sign rank test, n=4]

MDA-MB-435 cells = test: RT-qPCR of RNA levels after hGH addition or GHR-KD; type: cell-based, human
Protocol: as §1, §2, §3, §4

SK-MEL-28 cells = test: RT-qPCR of RNA levels after hGH addition or GHR-KD; type: cell-based, human
Protocol: as §1, §2, §3, §4

four melanoma cell lines = test: Cell proliferation / EC50 determination; details: serum concentration in media 1%
Protocol: A 1% (w/v) resazurin (Sigma-Aldrich #R7017) solution in 1× PBS was made and filter-sterilized. The final concentration of resazurin in the assay was 0.004%. Inside the proliferating cells, mildly fluorescent blue resazurin is reduced to a bright pink fluorescent product called resorufin (stable for 4 hours), which allows for a quantitative measure of the percentage of proliferating cells. In all cases, cells were incubated at 37° C. in 5% CO2 for 45-60 min. for adequate sensitivity of detection. Briefly, cells were seeded at 10,000 cells/cm^2 into 96-well plates and transfected as described above. The resazurin assay was performed 60 hours after transfection (unless specified otherwise) and resorufin absorbance was measured at 570 nm (reference wavelength=600 nm) using Spectramax250 (Molecular Devices, Sunnyvale, Calif.) and SoftmaxPro software.
More specifically, SK-MEL-28 cells (FIG. 8A, panel 1), MALME-3M cells (FIG. 8A, panel 2), MDA-MB-435 cells (FIG. 8A, panel 3), and SK-MEL-5 cells (FIG. 8A, panel 4) were treated with increasing doses of hGH for 48 hr. and cell proliferation was estimated using a resazurin-based metabolic assay.
For treatment of melanoma cells, the following five anti-tumor compounds were obtained from the sources mentioned: cisplatin (Calbiochem #232120, Darmstadt, Germany), doxorubicin (Sigma Aldrich #D-1515, St. Louis, Mo.), oridonin (Sigma-Aldrich #O-9639, St. Louis, Mo.), Paclitaxel (Sigma-Aldrich #C-7191), and vemurafenib/PLX4032 (ApexBio #A-3004, Houston, Tex.). […] In the subsequent experiments, the following drug concentrations were used unless specified otherwise: cisplatin (0.5 μM), doxorubicin (10 nM), oridonin (0.5 μM), paclitaxel (1 nM), vemurafenib (2 nM). Treatments were performed for 24 hours starting 48 hours post-transfection with siRNA.

[1] = 0, 5, 50 and 150 ng/mL hGH, 24 hr

“hGH: Recombinant human growth hormone, Antibodies Online #ABIN2017921” was tested, and the “RNA levels of TYRP1 with GH” value (MALME-3M cells) was “dose-dependent increase”, the “E-cadherin RNA levels with increasing GH” value (MDA-MB-435 cells) was “decreased significantly” and the “IGFBP2 RNA levels at high GH levels” value (SK-MEL-28 cells) was “increase”. The “N-cadherin RNA levels with increase of GH” value (SK-MEL-28 cells) was “significant dose-dependent increase”, the “vimentin RNA levels with increase of GH” value (SK-MEL-28 cells) was “significant dose-dependent increase” and the “RNA levels of MITF with GH” value (SK-MEL-28 cells; [1]) was “dose dependent increase”. For the same substance, the “RNA levels of TYRP1 with GH” value (SK-MEL-28 cells; [1]) was “dose-dependent increase” and the “minimum hGH concentration for a significant difference in cell proliferation” value (four melanoma cell lines) was 50 ng/mL.
